For 16 compounds, IC50 results are on record in US20260347373A1, “HETEROCYCLIC COMPOUNDS, COMPOSITIONS THEREOF, AND METHODS OF TREATMENT THEREWITH” (BeOne Medicines I GmbH, priority 2023, published 2026).

The target in one test is KRAS G12D (Homo sapiens, UniProt P01116, G12D). Briefly: KRAS G12D Probe Displacement Assay (TR-FRET, GDP-loaded). The test is classed as binding. From the text: (§1) The synthetic routes of probe 1 and 2, which have been disclosed in PCT/CN2022/070676, are hereby incorporated herein.
Sequence of KRAS G12D (P01116 1-188 isoform P01116-2 G12D): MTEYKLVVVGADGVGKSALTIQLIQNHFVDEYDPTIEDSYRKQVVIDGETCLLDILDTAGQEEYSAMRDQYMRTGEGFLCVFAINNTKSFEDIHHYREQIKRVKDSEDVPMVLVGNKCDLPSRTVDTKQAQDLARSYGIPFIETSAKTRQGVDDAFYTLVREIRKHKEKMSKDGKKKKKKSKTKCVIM
The next test has as its target WT KRAS (Homo sapiens, UniProt P01116). The test is described as follows: KRAS WT Probe Displacement Assay (TR-FRET, GDP-loaded). The test is classed as binding.
Source text: as §1

[1] abbreviates: KRAS G12D, read-out: KRAS^G12D Probe Displacement Assay IC50.
The mark [2] stands for this setting: KRAS WT, read-out: KRAS^WT Probe Displacement Assay IC50.

The structures appear in SMILES notation. Where a name gives a salt, the structure may show the parent alone. Read-outs that look alike come from different tables or passages of the source.

Sequence of WT KRAS (P01116 1-188 isoform P01116-2): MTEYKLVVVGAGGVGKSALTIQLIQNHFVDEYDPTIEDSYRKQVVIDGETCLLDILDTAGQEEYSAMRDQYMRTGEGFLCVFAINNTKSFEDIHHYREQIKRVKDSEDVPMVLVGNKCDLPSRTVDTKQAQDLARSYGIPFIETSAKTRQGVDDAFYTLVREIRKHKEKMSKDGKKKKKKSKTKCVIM

Consider `Cc1cc(N)cc(-c2nc3c4c(nc(OCC5(CN6CCC7(CCOCC7)C6)CC5)nc4c2F)N2C[C@H]4CC[C@H](N4)[C@H]2CCO3)c1C(F)(F)F` [Example 101, 3-((6aR,7S,10R)-13-((1-((8-oxa-2-azaspiro[4.5]decan-2-yl)methyl)cyclopropyl)methoxy)-1-fluoro-5,6,6a, 7,8,9,10,11-octahydro-4-oxa-3,11a,12,14,15-pentaaza[7,10]methanocyclohepta [4,5]cycloocta[1,2,3-de]naphthalen-2-yl)-5-methyl-4-(trifluoromethyl) aniline formate], for which the IC50 at KRAS G12D (KRAS^G12D Probe Displacement Assay IC50, KRAS G12D) is less than 0.3 nM; at WT KRAS (KRAS^WT Probe Displacement Assay IC50, KRAS WT), 3 to 1000 nM.

As to `Cc1cc(N)cc(-c2nc3c4c(nc(OCC5(CN(C)C)CC5)nc4c2F)N2C[C@H]4CC[C@H](N4)[C@H]2CCO3)c1C(F)(F)F` [Example 56, 3-((6aR,7S,10R)-13-((1-((dimethylamino)methyl)cyclopropyl)methoxy)-1-fluoro-5,6,6a,7,8,9,10,11-octahydro-4-oxa-3,11a,12,14,15-pentaaza-7,10-methanocyclohepta[4,5]cycloocta [1,2,3-de]naphthalen-2-yl)-5-methyl-4-(trifluoromethyl)aniline], the values for the IC50 at KRAS G12D (setting [1]) and at WT KRAS (setting [2]) were less than 0.3 nM and 3 to 1000 nM, respectively.

On to `Cc1cc(N)cc(-c2nc3c4c(nc(OCC5(CN6CCC7(CCOC7)C6)CC5)nc4c2F)N2C[C@H]4CC[C@H](N4)[C@H]2CCO3)c1C(F)(F)F` (stereo partly drawn) [Example 188, 3-((6aR,7S,10R)-13-((1-((2-oxa-7-azaspiro[4.4]nonan-7-yl)methyl)cyclopropyl)methoxy)-1-fluoro-5,6,6a,7,8,9,10,11-octahydro-4-oxa-3,11a,12,14,15-pentaaza[7,10]methanocyclohepta[4,5]cycloocta[1,2,3-de]naphthalen-2-yl)-5-methyl-4-(trifluoromethyl)aniline], for which the IC50 at KRAS G12D (setting [1]) and at WT KRAS (setting [2]) was less than 0.3 nM each time.

Take `Cc1cc(N)cc(-c2nc3c4c(nc(OCC5(CN6CCCC6CO)CC5)nc4c2F)N2C[C@H]4CC[C@H](N4)[C@H]2CCO3)c1C(F)(F)F` (single isomer, unassigned) [Example 124]: the IC50 on KRAS G12D (setting [1]) was 0.3 to 3 nM; on WT KRAS (setting [2]), 3 to 1000 nM.

On to `C=C1CN2C[C@H](F)C[C@]2(COc2nc3c4c(nc(-c5cc(N)cc(Cl)c5C(F)(F)F)c(F)c4n2)OCC[C@@H]2[C@@H]4CC[C@H](CN32)N4)C1` [Example 211, 3-chloro-5-((6aR,7aS,10R)-1-fluoro-13-(((2R,7aS)-2-fluoro-6-methylenetetrahydro-1H-pyrrolizin-7a(5H)-yl)methoxy)-5,6,6a,7,8,9,10,11-octahydro-4-oxa-3,11a,12,14,15-pentaaza-7,10-methanocyclohepta[4,5]cycloocta[1,2,3-de]naphthalen-2-yl)-4-(trifluoromethyl)aniline], for which the IC50 is less than 0.3 nM at KRAS G12D (setting [1]) and 3 to 1000 nM on WT KRAS (setting [2]).

Consider `Cc1cc(N)cc(-c2nc3c4c(nc(O[C@H](C)[C@@H]5CCCN5C)nc4c2F)N2C[C@H]4CC[C@H](N4)[C@H]2CCO3)c1C(F)(F)F` [Example 38, 3-((6aR,7S,10R)-1-fluoro-13-((R)-1-((S)-1-methylpyrrolidin-2-yl)ethoxy)-5,6,6a,7,8,9,10,11-octahydro-4-oxa-3,11a,12,14,15-pentaaza-7,10-methanocyclohepta[4,5]cycloocta [1,2,3-de]naphthalen-2-yl)-5-methyl-4-(trifluoromethyl)aniline], for which the IC50 on KRAS G12D (setting [1]) lay in the range of 0.3 to 3 nM; on WT KRAS (setting [2]) it was 3 to 1000 nM.

As to `Cc1cc(N)cc(-c2nc3c4c(nc(OCC5(CN6C[C@@H](F)[C@@H](O)C6)CC5)nc4c2F)N2C[C@H]4CC[C@H](N4)[C@H]2CCO3)c1C(F)(F)F` (stereo in doubt) [Example 95, cis-1-((1-((((6aR, 7S,10R)-2-(5-amino-3-methyl-2-(trifluoromethyl)phenyl)-1-fluoro-5,6,6a,7,8,9,10,11-octahydro-4-oxa-3,11a,12,14,15-pentaaza-7,10-methanocyclohepta [4,5]cycloocta[1,2,3-de]naphthalen-13-yl)oxy)methyl)cyclopropyl)methyl)-4-fluoropyrrolidin-3-ol formate], the IC50 at KRAS G12D (setting [1]) was less than 0.3 nM; on WT KRAS (setting [2]), 3 to 1000 nM.

Consider `CO[C@@H]1CN2C[C@H](F)C[C@]2(COc2nc3c4c(nc(-c5cc(N)cc(C)c5C(F)(F)F)c(F)c4n2)OCC[C@@H]2[C@@H]4CC[C@H](CN32)N4)C1` [Example 216, 3-((6aR,7S,10R)-1-fluoro-13-(((2R,6S,7aS)-2-fluoro-6-methoxytetrahydro-1H-pyrrolizin-7a(5H)-yl)methoxy)-5,6,6a,7,8,9,10,11-octahydro-4-oxa-3,11a,12,14,15-pentaaza-7,10-methanocyclohepta[4,5]cycloocta[1,2,3-de]naphthalen-2-yl)-5-methyl-4-(trifluoromethyl)aniline], for which the IC50 is less than 0.3 nM at KRAS G12D (setting [1]) and 3 to 1000 nM at WT KRAS (setting [2]).

For the compound `Cc1cc(N)cc(-c2nc3c4c(nc(OCC5(CN6CCN(C7CC7)CC6)CC5)nc4c2F)N2C[C@H]4CC[C@H](N4)[C@H]2CCO3)c1C(F)(F)F` [Example 192, 3-((6aR,7S,10R)-13-((1-((4-cyclopropylpiperazin-1-yl)methyl)cyclopropyl)methoxy)-1-fluoro-5,6,6a,7,8,9,10,11-octahydro-4-oxa-3,11a,12,14,15-pentaaza-7,10-methanocyclohepta[4,5]cycloocta[1,2,3-de]naphthalen-2-yl)-5-methyl-4-(trifluoromethyl)aniline], the values for the IC50 on KRAS G12D (setting [1]) and at WT KRAS (setting [2]) were less than 0.3 nM and 0.3 to 3 nM, respectively.

As for `Cc1cc(N)cc(-c2nc3c4c(nc(OCC5(CN6C[C@@H](C)O[C@@H](C)C6)CC5)nc4c2F)N2C[C@H]4CC[C@H](N4)[C@H]2CCO3)c1C(F)(F)F` [Example 64, 3-((6aR,7S,10R)-13-((1-(((2S,6R)-2,6-dimethylmorpholino)methyl)cyclopropyl)methoxy)-1-fluoro-5,6,6a,7,8,9,10,11-octahydro-4-oxa-3,11a,12,14,15-pentaaza-7,10-methanocyclohepta[4,5]cycloocta [1,2,3-de]naphthalen-2-yl)-5-methyl-4-(trifluoromethyl)aniline], the IC50 at KRAS G12D (setting [1]) is less than 0.3 nM; at WT KRAS (setting [2]) it was 0.3 to 3 nM.

As to `Cc1cc(N)cc(-c2nc3c4c(nc(OCC5(CN6CC7(CCOCC7)C6)CC5)nc4c2F)N2C[C@H]4CC[C@H](N4)[C@H]2CCO3)c1C(F)(F)F` [Example 85, 3-((6aR,7S,10R)-13-((1-((7-oxa-2-azaspiro[3.5]nonan-2-yl)methyl)cyclopropyl)methoxy)-1-fluoro-5,6,6a, 7,8,9,10,11-octahydro-4-oxa-3,11a,12,14,15-pentaaza[7,10]methanocyclohepta [4,5]cycloocta [1,2,3-de]naphthalen-2-yl)-5-methyl-4-(trifluoromethyl)aniline], the IC50 at KRAS G12D (setting [1]) is less than 0.3 nM; on WT KRAS (setting [2]) it was 0.3 to 3 nM.

As for `Cc1cc(N)cc(-c2nc3c4c(nc(OCC5(CN6CC=C[C@H]6C)CC5)nc4c2F)N2C[C@H]4CC[C@H](N4)[C@H]2CCO3)c1C(F)(F)F` [Example 160, 3-((6aR,7S,10R)-1-fluoro-13-((1-(((R)-2-methyl-2,5-dihydro-1H-pyrrol-1-yl)methyl)cyclopropyl)methoxy)-5,6,6a,7,8,9,10,11-octahydro-4-oxa-3,11a,12,14,15-pentaaza-7,10-methanocyclohepta[4,5]cycloocta[1,2,3-de]naphthalen-2-yl)-5-methyl-4-(trifluoromethyl)aniline], the IC50 on KRAS G12D (setting [1]) is less than 0.3 nM; at WT KRAS (setting [2]) it was 3 to 1000 nM.

In the case of `Cc1cc(N)cc(-c2nc3c4c(nc(OC[C@@H]5COC[C@H]5N(C)C)nc4c2F)N2C[C@H]4CC[C@H](N4)[C@H]2CCO3)c1C(F)(F)F` [Example 13, (3S,4S)-4-((((6aR,7S,10R)-2-(5-amino-3-methyl-2-(trifluoromethyl)phenyl)-1-fluoro-5,6,6a,7,8,9,10,11-octahydro-4-oxa-3,11a,12,14,15-pentaaza-7,10-methanocyclohepta[4,5]cycloocta [1,2,3-de]naphthalen-13-yl)oxy)methyl)-N,N-dimethyltetrahydrofuran-3-amine], the figures for the IC50 at KRAS G12D (setting [1]) and on WT KRAS (setting [2]) were less than 0.3 nM and 3 to 1000 nM, respectively.

Regarding `COC[C@@H]1[C@H]2C[C@H]2CN1CC1(COc2nc3c4c(nc(-c5cc(N)cc(C)c5C(F)(F)F)c(F)c4n2)OCC[C@@H]2[C@@H]4CC[C@H](CN32)N4)CC1` [Example 182, 3-((6aR,7S,10R)-1-fluoro-13-((1-(((1S,2S,5R)-2-(methoxymethyl)-3-azabicyclo[3.1.0]hexan-3-yl)methyl)cyclopropyl)methoxy)-5,6,6a,7,8,9,10,11-octahydro-4-oxa-3,11a,12,14,15-pentaaza-7,10-methanocyclohepta[4,5]cycloocta[1,2,3-de]naphthalen-2-yl)-5-methyl-4-(trifluoromethyl)aniline], the IC50 was less than 0.3 nM on KRAS G12D (setting [1]) and 3 to 1000 nM on WT KRAS (setting [2]).

Consider `Cc1cc(N)cc(-c2nc3c4c(nc(OCC5(CN6C[C@@H]7C[C@@H]7[C@H]6CO)CC5)nc4c2F)N2C[C@H]4CC[C@H](N4)[C@H]2CCO3)c1C(F)(F)F` [Example 97, ((1S,2S,5R)-3-((1-((((6aR,7S,10R)-2-(5-amino-3-methyl-2-(trifluoromethyl)phenyl)-1-fluoro-5,6,6a,7,8,9,10,11-octahydro-4-oxa-3,11a,12,14,15-pentaaza-7,10-methanocyclohepta [4,5]cycloocta,[1,2,3-de]naphthalen-13-yl)oxy)methyl)cyclopropyl)methyl)-3-azabicyclo [3.1.0]hexan-2-yl) methanol], for which the IC50 on KRAS G12D (setting [1]) was less than 0.3 nM; on WT KRAS (setting [2]) it was 3 to 1000 nM.

Regarding `C=C1CN2C[C@H](F)C[C@@]2(COc2nc3c4c(nc(-c5cc(N)cc(Cl)c5C(F)(F)F)c(F)c4n2)OCC[C@@H]2[C@@H]4CC[C@H](CN32)N4)C1` [Example 209, 3-chloro-5-((6aR,7S,10R)-1-fluoro-13-(((2R,7aR)-2-fluoro-6-methylenetetrahydro-1H-pyrrolizin-7a(5H)-yl)methoxy)-5,6,6a,7,8,9,10,11-octahydro-4-oxa-3,11a,12,14,15-pentaaza-7,10-methanocyclohepta[4,5]cycloocta[1,2,3-de]naphthalene-2-yl)-4-(trifluoromethyl)aniline], the IC50 at KRAS G12D (setting [1]) is less than 0.3 nM; at WT KRAS (setting [2]) it was 3 to 1000 nM.
